Starred links: 1 amine or outer side, 2 acyl side, 3 side chain; linkers in the order of their positions; H or OH if unused. Positions of bridges follow the written chain, without caps; N, C: chain ends. Non-standard residues stand in square brackets, D forms with d. Residues, ends and D or L forms follow the SMILES beside them. Chains are numbered I, II in the order given. *: point of attachment. isoGln = NC(=O)[C@H](CCC(=O)[*:2])N[*:1]; εLys = N[C@@H](CCCCN[*:1])C(=O)[*:2]; Dab = NCC[C@H](N)C(=O)O; PhAc = O=C(Cc1ccccc1)*
Key:
blood lactate = assay: Blood lactate in cynomolgus monkeys after SC Compound 1; assay type: in vivo, cynomolgus monkey; settings: 15-360 min
Experimental: Blood samples (0.5 mL in EDTA) were collected from a femoral or saphenous vein before dosing and at multiple times continuing out to 480 min after administration. Lactate concentration was also measured as part of PD analysis and collected as EDTA whole blood from the pre-dose, 15-, 40-, 90-, 180-, and 360-min post-administration samples immediately after collection using a Lactate Plus (Nova Biomedical) meter. For blood sample analysis, plasma was prepared from whole blood. Subsequent bioanalysis included compound extraction followed by standard LC/MS methods to determine compound concentration in each sample.

[1] = M1 formation, subcutaneous infusion in mini-pigs; design: species or system mini-pig; settings: minipig, in vivo, sc, s.c. infusion
[2] = M1 formation after IV and SC (bolus) injection in healthy rats; settings: in vivo, s.c. (bolus) injection, rat
Excerpt: A similar study in healthy rats was used to evaluate the differences between metabolite formation of Compound 1 after IV bolus and SC (bolus) injection.

rV1b receptor = molecular target: T1, rV1b receptor (Rattus norvegicus, UniProt P48974); assay: Luciferase reporter gene assay, rat V1b; settings: read-out: % MPE
T1 sequence (P48974 1-425): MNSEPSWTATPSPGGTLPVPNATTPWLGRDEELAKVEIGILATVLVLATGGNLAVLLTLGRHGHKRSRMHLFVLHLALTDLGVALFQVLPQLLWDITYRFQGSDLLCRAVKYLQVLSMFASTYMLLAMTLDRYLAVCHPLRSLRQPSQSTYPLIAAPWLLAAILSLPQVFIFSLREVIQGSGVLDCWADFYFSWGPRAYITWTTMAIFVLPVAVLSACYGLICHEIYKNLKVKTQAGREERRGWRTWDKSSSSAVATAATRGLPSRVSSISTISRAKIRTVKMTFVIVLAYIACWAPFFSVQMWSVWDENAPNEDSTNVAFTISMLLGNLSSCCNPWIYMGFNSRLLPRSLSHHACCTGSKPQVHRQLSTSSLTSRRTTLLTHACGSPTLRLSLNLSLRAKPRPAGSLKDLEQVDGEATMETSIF
Experimental: Cell Maintenance. […]
Functional Cell-Based Assays. To detect activity generated by binding of the test compounds to endogenous rV1a receptors or the stably expressed hV1a receptors, Fluorometric Imaging Plate Reader (FL1PR) calcium assays were performed. Briefly, real-time fluorescence of an intracellular calcium-sensitive dye was measured immediately upon addition of the test compound at various concentrations. […] Expression of the luciferase gene was determined after 5-h incubation with various concentrations of test compound. […] For V1a receptor response, area under the curve of the real-time calcium traces, expressed as relative fluorescence units, was determined. […]

rV1a receptor = molecular target: T2, rV1a receptor (Rattus norvegicus, UniProt P30560); assay: FLIPR calcium assay, rat V1a (A7r5 cells); assay type: cell-based; settings: A7R5, read-out: % MPE
T2 construct: endogenously expressing rV1a; host or cells: A7r5 rat thoracic aorta smooth muscle cells
T2 sequence (P30560 whole entry): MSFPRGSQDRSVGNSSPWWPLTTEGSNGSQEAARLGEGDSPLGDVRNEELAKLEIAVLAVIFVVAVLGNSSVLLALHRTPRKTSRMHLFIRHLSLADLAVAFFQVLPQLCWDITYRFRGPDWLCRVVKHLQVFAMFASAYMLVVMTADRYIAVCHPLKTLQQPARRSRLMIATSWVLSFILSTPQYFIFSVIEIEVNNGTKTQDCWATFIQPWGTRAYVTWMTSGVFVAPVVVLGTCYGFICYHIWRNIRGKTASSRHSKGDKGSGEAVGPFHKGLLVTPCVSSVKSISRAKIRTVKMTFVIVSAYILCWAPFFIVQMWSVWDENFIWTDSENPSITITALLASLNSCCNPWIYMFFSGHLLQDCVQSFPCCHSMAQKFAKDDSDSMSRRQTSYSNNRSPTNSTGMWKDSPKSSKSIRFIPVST
Experimental: Cell Lines. Studies were conducted with cell lines expressing rat (r) or human (h) Via, V1b, V2, or OT receptors. For the experiments with human receptors, human embryonic kidney (HEK)-flp-in cells stably expressing the lacZ-Zeocin™ fusion gene were used for expression of hV1a and hV1b. These cells were designed for use with the Flp-In™ expression vector containing the gene of interest (here hV1a or hV1b) and the Flp recombinase expression plasmid, pOG44. For hV2 and hOTR, HEK-293 cells transiently expressing hV2 were used.
Functional Cell-Based Assays.

[3] = PK of Compound 1, once daily subcutaneous (bolus) injection for 5 days in healthy men and women (Period 2); assay type: in vivo, human
Excerpt: In some instances, endpoints of the study were: vital signs (e.g., supine blood pressure, pulse, and body temperature), electrocardiogram (ECG) (e.g., intervals, rhythm, and morphology), cardiac function (e.g., cardiac output using echocardiography), peripheral blood flow/tissue perfusion (e.g., by skin color), venous blood gases (e.g., lactate), urinary output, clinical chemistry, hematology, hemostasis, and urinalysis, adverse events (AEs) (e.g., type, frequency, and intensity), pharmacokinetics (e.g., AUC, AUCt, AUCτ, % Extrap AUC, Cmax, tmax, CL, Vz, t1/2, MRT, Vss, F, Ae, and CLR), and metabolite pattern in plasma and urine.

[4] = system: CCl4-induced rat model of cirrhosis and ascites; assay: CCl4-induced cirrhosis and ascites rats, cohort 1 (SC bolus b.i.d. 3 days), renal excretory function; assay type: in vivo
Experimental: Animals: 90 male Wistar rats (Charles River Laboratories, Espana S.A) weighing 200-220 grams at the time of receipt were subjected to a cirrhosis induction program; high dose CCl4 was administered by inhalation twice weekly (Monday and Friday) and phenobarbital (0.3 g/L) was added to drinking water. In some instances, liver damage in this model is caused by hepatotoxic CCl4 metabolites produced in the liver. In some instances, phenobarbital induction of the microsomal enzyme oxidizing system exaggerates the intensity of the hepatic necrosis. The data was collected from the treatment of 44 cirrhotic rats with ascites. Animals were allowed free access to food and water throughout the study.
The study consisted of 3 treatment cohorts, as detailed in Table 10. Animals developing and maintaining ascites for 2 weeks were randomly assigned to treatment groups. Ringer Braun saline solution was used as vehicle. IV bolus were administered via femoral veins.
This study was performed at the Hospital Clinic (Barcelona, Spain). Measurements and/or samples were collected for additional experimental parameters (e.g., water intake, urine osmolality, serum samples, tissue samples, etc.) but data are not reported.
Cohort 1: Animals were placed into metabolic cages for continuous urine collection and administered 100 μg/kg FE 204205 or vehicle by SC bolus for 3 days (see Table 3 for details). Measurements of body weight, urine volume, and urine sodium content were taken prior to treatment (Day 0) and daily over the course of treatment administration. After 3 days of treatment, the volume of ascites was measured by aspiration and the animals were sacrificed by isofluorane overdose.

[5] = s.c. 0.1 mg, 1st administration
[6] = s.c. 0.1 mg, 5th administration
[7] = s.c. 0.3 mg, 1st administration
[8] = s.c. 0.3 mg, 5th administration

For `CC[C@H](C)[C@@H]1NC(=O)[C@H](Cc2ccccc2)NC(=O)[C@@H](N)CSSC[C@@H](C(=O)N2CCC[C@H]2C(=O)N[C@@H](CCNC(=O)[C@@H](N)CCCCNC(=O)[C@H](CCCCNC(C)=O)NC(=O)CC[C@H](NC(=O)[C@H](CCCNC(=N)N)NC(=O)[C@@H]2CCCN2C(=O)[C@H](C)NC(=O)[C@H](CC(N)=O)NC(=O)[C@H](CCC(N)=O)NC(=O)[C@H](Cc2ccccc2)NC(=O)[C@@H](Cc2ccc(OC)cc2)NC(=O)Cc2ccccc2)C(N)=O)C(=O)NCC(N)=O)NC(=O)[C@H](CC(N)=O)NC(=O)[C@H](CCC(N)=O)NC1=O` [Compound 1, Glycinamide, L-cysteinyl-L-phenylalanyl-L-isoleucyl-L-glutaminyl-L-asparaginyl-L-cysteinyl-L-prolyl-N4-(phenylacetyl-O-methyl-D-tyrosyl-L-phenylalanyl-L-glutaminyl-L-asparaginyl-L-alanyl-L-prolyl-L-arginyl-L-isoglutamyl-N5-acetyl-L-lysyl-L-ε-lysyl)-L-2,4-diaminobutyryl-, cyclic (1→6)-disulfide] (I: H-CFIQNCP[Dab]G-NH2 / II: PhAc-[dY](Me)FQNAPR[isoGln]K(Ac)[εLys]; disulfide I:1-I:6; amide I:8-II:C), the “blood lactate versus pre-dose” value (blood lactate) was “not notably increased”, the metabolised [1] was less than 20% and the metabolised [2] was 80 to 90%. The Emax (rV1b receptor) was 97%, the Emax (rV1a receptor) was 30% and the bioavailability ([3]; repeated s.c. injections, versus i.v.) was “about 18%”. For the same compound, the “terminal half-life (summary)” value ([3]; s.c.) was “about 1 hours”, the “tmax (summary)” value ([3]; s.c.) was “about 0.3 hours” and the “AUC, geometric mean” value [3, 5] was 0.87 (22) h*ng/mL. For the same compound, the “AUC, mean” value [3, 5] was 0.88 (0.19) h*ng/mL, the “Cmax, geometric mean” value [3, 5] was 0.43 (41) ng/mL and the “Cmax, mean” value [3, 5] was 0.46 (0.17) ng/mL. For the same compound, the “tmax, mean” value [3, 5] was 0.3 (0.1) h, the “AUC, geometric mean” value [3, 6] was 0.70 (3) h*ng/mL and the “AUC, mean” value [3, 6] was 0.70 (0.02) h*ng/mL. The “Cmax, geometric mean” value [3, 6] was 0.42 (28) ng/mL, the “Cmax, mean” value [3, 6] was 0.43 (0.14) ng/mL and the “tmax, mean” value [3, 6] was 0.3 (0.1) h. For the same compound, the “AUC, geometric mean” value [3, 7] was 6.40 (109) h*ng/mL, the “AUC, mean” value [3, 7] was 7.90 (5.01) h*ng/mL and the “Cmax, geometric mean” value [3, 7] was 2.45 (98) ng/mL. For the same compound, the “Cmax, mean” value [3, 7] was 2.99 (2.03) ng/mL, the “t1/2, mean” value [3, 7] was 1.6 (0.7) h and the “tmax, mean” value [3, 7] was 0.4 (0.5) h. For the same compound, the “AUC, geometric mean” value [3, 8] was 2.77 (113) h*ng/mL, the “AUC, mean” value [3, 8] was 3.36 (2.69) h*ng/mL and the “Cmax, geometric mean” value [3, 8] was 1.42 (58) ng/mL. For the same compound, the “Cmax, mean” value [3, 8] was 1.52 (0.79) ng/mL, the “tmax, mean” value [3, 8] was 0.4 (0.2) h and the “tmax, median” value [3, 8] was 24 min. The median tmax ([3]; s.c. 0.1 and 0.3 mg, 1st and 5th administrations) was 18 to 24 min, the “Ascites Volume” value ([4]; 100 μg/kg SC b.i.d., after 3 days (vehicle 18.6)) was 6.0 mL and the “Body Weight” value ([4]; 100 μg/kg SC b.i.d., basal) was 461 grs. The “Sodium Excretion” value ([4]; 100 μg/kg SC b.i.d., basal) was 0.6 mEq/day, the “Urine Volume” value ([4]; 100 μg/kg SC b.i.d., basal) was 9.7 mL/day and the “Body Weight” value ([4]; 100 μg/kg SC b.i.d., day 1) was 402 grs. For the same compound, the “Sodium Excretion” value ([4]; 100 μg/kg SC b.i.d., day 1) was 8.2 mEq/day, the “Urine Volume” value ([4]; 100 μg/kg SC b.i.d., day 1) was 51.6 mL/day and the “Body Weight” value ([4]; 100 μg/kg SC b.i.d., day 2) was 397 grs. The “Sodium Excretion” value ([4]; 100 μg/kg SC b.i.d., day 2) was 1.1 mEq/day, the “Urine Volume” value ([4]; 100 μg/kg SC b.i.d., day 2) was 21.8 mL/day and the “Body Weight” value ([4]; 100 μg/kg SC b.i.d., day 3) was 396 grs. For the same compound, the “Sodium Excretion” value ([4]; 100 μg/kg SC b.i.d., day 3) was 0.3 mEq/day, the “Urine Volume” value ([4]; 100 μg/kg SC b.i.d., day 3) was 16.6 mL/day and the effect on ascites ([4]; SC, three days) was “fully evacuated the ascites accumulated in the peritoneal cavity or markedly diminished ascites volume”.
